Source: ChEMBL document CHEMBL5321265, “Polyketides with Anti-Inflammatory Activity from Trichoderma koningiopsis, a Rhizosphere Fungus from the Medicinal Plant Polygonum paleaceum” (J Nat Prod, 2023)

Tests used:
BV-2 [1] = experiment: Anti-inflammatory activity against LPS-induced mouse BV-2 cells assessed as increase in cell viability preincubated with compound for 1 hrs followed by LPS stimulation and measured after 24 hrs by CCK-8 method; type: functional, cell-based; settings: dose 2.5-20 µM, time 25.0 hrs
BV-2 [2] = experiment: Anti-inflammatory activity in mouse BV-2 cells assessed as inhibition of LPS-induced NO production preincubated with compound for 1 hrs followed by LPS stimulation and measured after 24 hrs by Griess reagent based assay; type: functional, cell-based

| IC50 (BV-2 [2]) [µM] | SMILES | Activity (BV-2 [1]) |
| --- | --- | --- |
| 3 | CCCCCC[C@H]1O[C@]23O[C@H]1CC[C@@H]2C(=O)CC[C@H]3O | Dose-Dependent Effect |
| 8.9 | CCCCCC[C@@H]1O[C@]23O[C@H]1CC=C2C(=O)CC[C@H]3O | Dose-Dependent Effect |
| 14 | CCCCCC[C@@H]1O[C@@]23CC[C@@H](O)C(=O)[C@H]2CC[C@@H]1O3 | Dose-Dependent Effect |
